From ChEMBL document CHEMBL1148877, “Evaluation of 4'-substituted bicyclic pyridones as non-steroidal inhibitors of steroid 5alpha-reductase” (Bioorg Med Chem Lett, 2007)

What was measured:
[1] = molecular target: T1, 3-oxo-5-alpha-steroid 4-dehydrogenase 1 (Homo sapiens) (UniProt P18405); test: Inhibition of steroid 5-alpha reductase type 1 expressed in HEK 293 cells at 10 uM; type: cell-based; conditions: HEK293
T1 sequence (whole entry): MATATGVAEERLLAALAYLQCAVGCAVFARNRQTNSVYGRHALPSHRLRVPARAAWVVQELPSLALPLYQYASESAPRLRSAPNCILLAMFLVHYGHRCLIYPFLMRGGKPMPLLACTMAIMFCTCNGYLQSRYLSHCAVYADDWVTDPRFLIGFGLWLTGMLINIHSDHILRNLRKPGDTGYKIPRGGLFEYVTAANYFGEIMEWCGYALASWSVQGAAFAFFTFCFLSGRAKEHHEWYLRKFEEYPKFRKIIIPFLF

[2] = molecular target: T2, 3-oxo-5-alpha-steroid 4-dehydrogenase 2 (Homo sapiens) (UniProt P31213); test: Inhibition of steroid 5-alpha reductase type 2 expressed in HEK 293 cells at 10 uM; type: cell-based; conditions: HEK293
T2 sequence (whole entry): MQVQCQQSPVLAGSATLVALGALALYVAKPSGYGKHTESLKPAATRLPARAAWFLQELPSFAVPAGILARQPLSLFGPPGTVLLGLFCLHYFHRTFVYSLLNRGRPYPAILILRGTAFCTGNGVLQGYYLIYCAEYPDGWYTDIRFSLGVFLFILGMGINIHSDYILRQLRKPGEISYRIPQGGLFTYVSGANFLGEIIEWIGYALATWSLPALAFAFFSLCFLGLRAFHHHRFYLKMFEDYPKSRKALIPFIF

[3] = molecular target: T3, 3-oxo-5-alpha-steroid 4-dehydrogenase 2 (Homo sapiens, UniProt P31213); test: Inhibition of steroid 5-alpha reductase type 2 expressed in HEK 293 cells; type: cell-based, HEK293
T3 sequence (P31213 whole entry): T2 sequence (whole entry)

[4] = molecular target: T4, 3-oxo-5-alpha-steroid 4-dehydrogenase 1 (Homo sapiens, UniProt P18405); test: Inhibition of steroid 5-alpha reductase type 1 expressed in HEK 293 cells; type: cell-based, HEK293
T4 sequence (P18405 whole entry): T1 sequence (whole entry)

## CC(C)NC(=O)COc1ccc(-c2ccc(=O)n(C)c2)cc1
[1]
  inhibition: 8%

## C=CCNC(=O)COc1ccc(N2C=CC(=O)CC2C)cc1 (stereo unspecified)
[2]
  inhibition: 12%
[1]
  inhibition: 8%

## CC1CC(=O)C=CN1c1ccc(OCC(=O)N(C(C)C)C(C)C)cc1 (stereo unspecified)
[1]
  inhibition: 3%

## Cn1cc(-c2ccc(C(=O)Cc3ccccc3)cc2)ccc1=O
[1]
  inhibition: 61%

## CC(=O)SCCCCCCCCCCCCCCCC(=O)NCCOCCOC(=O)CC/C=C/CNC(=O)COc1ccc(-c2ccc(=O)n(C)c2)cc1
[1]
  inhibition: 33%

## CC(=O)SCCCCCCCCCCCCCCCC(=O)NCCOC(=O)CC/C=C/CNC(=O)COc1ccc(-c2ccc(=O)n(C)c2)cc1
[1]
  inhibition: 43%

## CC(C)N(C(=O)COc1ccc(C2CCC(=O)N(C)C2)cc1)C(C)C (stereo unspecified)
[1]
  inhibition: 6%

## CC(C)(C)NC(=O)[C@H]1CC[C@H]2[C@@H]3CC[C@H]4NC(=O)C=C[C@]4(C)[C@H]3CC[C@]12C [FINASTERIDE]
[3]
  IC50: 0.025 µM
[4]
  IC50: 0.453 µM

## C=CCNC(=O)COc1ccc(-c2ccc(=O)n(C)c2)cc1
[1]
  inhibition: 6%
